This is an account of results in ChEMBL document CHEMBL5244232, “Progress in 11β-HSD1 inhibitors for the treatment of metabolic diseases: A comprehensive guide to their chemical structure diversity in drug development” (Eur J Med Chem, 2020).

Assay [1] addresses T1, 11-beta-hydroxysteroid dehydrogenase 1 (Mus musculus, UniProt P50172). The assay can be described thus: Inhibition of mouse 11beta-HSD1.
Assay [2] concerns the target T2, 11-beta-hydroxysteroid dehydrogenase 1 (Homo sapiens, UniProt P28845). Kind of assay: Inhibition of human 11beta-HSD1 incubated for 30 mins by HPLC-MS/MS analysis.
In assay [3] the target is Hydroxysteroid 11-beta dehydrogenase 1 (Macaca mulatta, UniProt Q56D22). Kind of assay: Inhibition of monkey 11beta-HSD1 in liver microsome incubated for 24 hrs by LC-MS analysis. The format is microsomes. Background: Liver microsomes are a subcellular fraction often used to study metabolism.
Assay [4] deals with T1, 11-beta-hydroxysteroid dehydrogenase 1. Kind of assay: Inhibition of mouse 11beta-HSD1 in liver microsome incubated for 24 hrs by LC-MS analysis. The format is microsomes.
Assay [5] concerns the target T2, 11-beta-hydroxysteroid dehydrogenase 1. The assay can be described thus: Inhibition of human 11beta-HSD1 in liver microsome incubated for 24 hrs by LC-MS analysis. The format is microsomes.
For assay [6] the target is unchanged. The assay can be described thus: Inhibition of human 11beta-HSD1 using steroid as substrate incubated for 20 to 30 mins by microplate fluorimeter analysis.
Assay [7] concerns the target T1, 11-beta-hydroxysteroid dehydrogenase 1. The assay can be described thus: Inhibition of mouse 11beta-HSD1 expressed in CHO-K1 cells incubated for 3 hrs by HTRF assay. The format is cell-based.
Assay [8] in a line: Inhibition of rat 11beta-HSD2 expressed in Leydig cells. The format is cell-based.
In assay [9] the target is T3, 11-beta-hydroxysteroid dehydrogenase 1 (Rattus norvegicus, UniProt P16232). Kind of assay: Inhibition of rat 11beta-HSD1 expressed in Leydig cells. The assay is classed as cell-based.
For assay [10], the target named is T3, 11-beta-hydroxysteroid dehydrogenase 1. Kind of assay: Inhibition of rat 11beta-HSD1.
Assay [11] concerns the target T2, 11-beta-hydroxysteroid dehydrogenase 1. The assay can be described thus: Inhibition of human 11beta-HSD1.
The target in assay [12] is T4, 11-beta-hydroxysteroid dehydrogenase type 2 (Homo sapiens, UniProt P80365).
T4 sequence (P80365 whole entry): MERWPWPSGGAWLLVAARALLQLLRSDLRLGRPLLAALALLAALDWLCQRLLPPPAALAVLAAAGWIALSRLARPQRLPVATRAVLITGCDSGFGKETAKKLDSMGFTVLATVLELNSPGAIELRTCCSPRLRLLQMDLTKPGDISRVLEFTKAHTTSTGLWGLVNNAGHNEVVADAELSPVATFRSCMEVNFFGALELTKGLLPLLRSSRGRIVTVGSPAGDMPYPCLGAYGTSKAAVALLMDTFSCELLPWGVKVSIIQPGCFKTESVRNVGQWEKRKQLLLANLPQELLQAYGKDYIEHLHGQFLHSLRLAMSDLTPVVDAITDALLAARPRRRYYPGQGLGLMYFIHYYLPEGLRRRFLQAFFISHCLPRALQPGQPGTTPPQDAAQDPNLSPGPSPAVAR
Kind of assay: Inhibition of human 11beta-HSD2 incubated for 2 hrs by HPLC analysis.

Assay [13] concerns the target T1, 11-beta-hydroxysteroid dehydrogenase 1. Kind of assay: Inhibition of mouse 11beta-HSD1 expressed in CHO-K1 cells incubated for 24 hrs by HTRF assay. The assay is classed as cell-based. Background: In TR-FRET formats the signal depends on donor and acceptor labels being close together.
Assay [14] shares this target. Kind of assay: Inhibition of mouse 11beta-HSD1 incubated for 24 hrs by HTRF assay.
Assay [15] has the same target. Kind of assay: Inhibition of mouse 11beta-HSD1 expressed in 3T3-L1 cells incubated for 24 hrs by HTRF assay. The assay is classed as cell-based.
For assay [16], the target named is T3, 11-beta-hydroxysteroid dehydrogenase 1. Kind of assay: Inhibition of rat 11beta-HSD1 in kidney microsomes incubated for 20 mins by HPLC analysis. The arrangement: species or system Microsome.
Assay [17] deals with 11-beta-hydroxysteroid dehydrogenase 1 (Rattus norvegicus) (UniProt P16232). The assay can be described thus: Inhibition of rat 11beta-HSD1 in adipose tissue microsome.

SMILES strings stand for the structures. Several values for one entry are separate records, joined by “and”; a condition that tells them apart may be missing. Equal entries are not always repeated.

T1 sequence (P50172 whole entry): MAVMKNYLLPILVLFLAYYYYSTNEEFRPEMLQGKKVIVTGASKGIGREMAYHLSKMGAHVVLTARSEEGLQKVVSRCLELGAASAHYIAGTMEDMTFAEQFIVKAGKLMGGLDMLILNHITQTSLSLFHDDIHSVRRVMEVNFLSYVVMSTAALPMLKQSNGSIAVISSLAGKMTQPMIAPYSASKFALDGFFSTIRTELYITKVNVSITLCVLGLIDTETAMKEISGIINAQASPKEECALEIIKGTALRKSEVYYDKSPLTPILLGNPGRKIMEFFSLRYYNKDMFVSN
T2 sequence (P28845 whole entry): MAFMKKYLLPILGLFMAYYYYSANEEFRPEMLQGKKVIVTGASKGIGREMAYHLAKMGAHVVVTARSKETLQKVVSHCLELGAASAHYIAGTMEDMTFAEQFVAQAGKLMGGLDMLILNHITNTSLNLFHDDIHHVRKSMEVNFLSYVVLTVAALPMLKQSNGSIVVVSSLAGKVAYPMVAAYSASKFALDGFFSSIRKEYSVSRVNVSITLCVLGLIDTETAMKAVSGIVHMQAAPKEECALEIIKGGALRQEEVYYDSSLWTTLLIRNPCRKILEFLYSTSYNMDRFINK
T3 sequence (P16232 whole entry): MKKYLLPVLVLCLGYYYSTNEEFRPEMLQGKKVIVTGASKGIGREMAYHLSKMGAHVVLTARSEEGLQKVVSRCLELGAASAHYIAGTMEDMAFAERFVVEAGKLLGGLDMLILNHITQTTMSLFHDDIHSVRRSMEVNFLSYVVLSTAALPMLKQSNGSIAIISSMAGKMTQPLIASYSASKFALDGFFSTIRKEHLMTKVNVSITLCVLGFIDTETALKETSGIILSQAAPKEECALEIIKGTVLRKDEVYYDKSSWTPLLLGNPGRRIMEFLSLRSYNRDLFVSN
Sequence of Hydroxysteroid 11-beta dehydrogenase 1 (Q56D22 whole entry): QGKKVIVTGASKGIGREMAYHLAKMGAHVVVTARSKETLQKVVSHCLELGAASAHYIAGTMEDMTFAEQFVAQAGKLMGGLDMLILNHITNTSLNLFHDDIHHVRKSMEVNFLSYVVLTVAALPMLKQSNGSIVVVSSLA

A word on the IC50: it is the concentration that gives 50% inhibition. In assay [1], `C[C@@H](c1ccc(-c2ccn(C)c(=O)c2)cc1)N1CC[C@](CC(C)(C)O)(c2ccccc2)OC1=O` showed an IC50 of 4.3 nM. Turning to `CC1=C2[C@H](C)[C@@H](C)O[C@]23O[C@H](C)[C@@H](C)O[C@@]3(O)CC1=O`, the IC50 in assay [2] came to 9070 nM.

Consider `CN(CC1(C(=O)NC23CC4CC(C2)CC(C(N)=O)(C4)C3)CC1)S(=O)(=O)c1ccccc1F`, for which the IC50 in assay [3] worked out at 2.43 nM; in assay [4] it was 2.8 nM; in assay [5] it was 0.02 nM. `O=C(Cc1csc(NS(=O)(=O)c2c(Cl)cc(Cl)cc2Cl)n1)N1CCOCC1` showed an IC50 in assay [6] of 335 nM. In the case of `O=C(NC12CC3CC(CC(C3)C1)C2)C1NCCS1` (configuration not stated), the IC50 in [7] is 2130 nM. Turning to `O=C1/C(=C\c2ccccc2C(F)(F)F)CCC/C1=C\c1ccccc1C(F)(F)F`, the 50% inhibitory concentration (IC50) was greater than 100000 nM in assay [8] and 100 nM in assay [9].

`C[C@@H]1CN(c2ccc(F)cc2C(F)(F)F)CCN1S(=O)(=O)c1cccc([C@@](C)(O)C(F)(F)F)c1` [HSD-016]: the IC50 is 8 nM in assay [10]; 11 nM in [11]; 1 nM and 8 nM in [1]. `O=C(O[C@@H]1Cc2c(O)cc(O)cc2O[C@@H]1c1cc(O)c(O)c(O)c1)c1cc(O)c(O)c(O)c1` [EPIGALOCATECHIN GALLATE] registered an IC50 in [12] of 20900 nM. As for `O=S(=O)(Nc1nc(-c2sccc2Cl)cs1)c1cc(F)c(Br)cc1F`, in [6], the IC50 is 63 nM. `Cc1nc(NS(=O)(=O)c2ccc(Cl)cc2Cl)sc1CC(Cl)(Cl)Cl` returned an IC50 in assay [6] of 55 nM. In turn, `NC(=O)C12CC3CC(CC(NC(=O)CN4CCCN(c5c(Cl)cc(Cl)cc5Cl)S4(=O)=O)(C3)C1)C2` gave a concentration for half-maximal inhibition (IC50) in assay [13] of 0.4 nM.

Turning to `O=C(CN1C(C(=O)c2ccccc2)=C(O)c2ccccc2S1(=O)=O)c1ccccc1`, in assay [14], the IC50 came to 210 nM. Take `NC(=O)C12CC3CC(CC(NC(=O)C4SCCN4S(=O)(=O)c4ccccc4F)(C3)C1)C2` (configuration not stated): the figures for the IC50 in assay [15] and in [7] were 3 nM and 5.2 nM, respectively.

On to `Oc1ccc(/C=C/c2cc(O)cc(O)c2)cc1` [RESVERATROL], for which the IC50 was found to be 35200 nM in [16] and 1000 nM in [17]. Regarding `O=S(=O)(c1ccccc1)N1CCN(c2ncccc2C(F)(F)F)CC1`, the concentration for half-maximal inhibition (IC50) in [11] came out at 61 nM.
